Measurements: PubChem BioAssay AID1963448 (Molecular Pharmacology Branch, DTP, NCI, 2024)

Test system: 616215-338-R-J1-PDC complex spheroid growth, % test/control
Test: Anticancer human tumor 616215-338-R-J1-PDC patient-derived colon adenocarcinoma cell line growth inhibition [Asc]
Details: for IC50: curve of first compound; for viability, T/C: stronger effect = lower value; active = viability on the fitted dose curve at most 10% of control; inactive = the rest
In short: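 Spheroid model: tumor line + HUVEC + hMSC. Single agents and combinations; top conc. at/near clinical Cmax (10 microM if undetermined), half-log dilutions. DMSO stocks at 800-fold test concentration.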

[1] = second compound 0.1 µM, first compound 0.0316 µM
[2] = second compound 0.1 µM, first compound 0.1 µM
[3] = second compound 0.1 µM, first compound 0.316 µM
[4] = second compound 0.1 µM, first compound 1 µM
[5] = second compound 0.316 µM, first compound 0.0316 µM
[6] = second compound 0.316 µM, first compound 0.1 µM
[7] = second compound 0.316 µM, first compound 0.316 µM
[8] = second compound 0.316 µM, first compound 1 µM
[9] = second compound 1 µM, first compound 0.0316 µM
[10] = second compound 1 µM, first compound 0.1 µM
[11] = second compound 1 µM, first compound 0.316 µM
[12] = second compound 1 µM, first compound 1 µM
[13] = second compound 3.16 µM, first compound 0.0316 µM
[14] = second compound 3.16 µM, first compound 0.1 µM
[15] = second compound 3.16 µM, first compound 0.316 µM
[16] = second compound 3.16 µM, first compound 1 µM
[17] = second compound 10 µM, first compound 0.0316 µM
[18] = second compound 10 µM, first compound 0.1 µM
[19] = second compound 10 µM, first compound 0.316 µM
[20] = second compound 10 µM, first compound 1 µM
[21] = second compound 0.1 µM, first compound 0.00316 µM
[22] = second compound 0.1 µM, first compound 0.01 µM
[23] = second compound 0.316 µM, first compound 0.00316 µM
[24] = second compound 0.316 µM, first compound 0.01 µM
[25] = second compound 1 µM, first compound 0.00316 µM
[26] = second compound 1 µM, first compound 0.01 µM
[27] = second compound 3.16 µM, first compound 0.00316 µM
[28] = second compound 3.16 µM, first compound 0.01 µM
[29] = second compound 10 µM, first compound 0.00316 µM
[30] = second compound 10 µM, first compound 0.01 µM
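Also: spheroids exposed to agents for seven days before readout.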
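For viability, T/C in this document: 100% = DMSO vehicle control viability.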

C=CC(=O)N1CCN(c2nc(=O)n(-c3c(C)ccnc3C(C)C)c3nc(-c4c(O)cccc4F)c(F)cc23)C(C)C1 (stereo not given) + Cc1c(S(C)(=O)=O)c(-c2cc(F)cc(N3CCN(c4ccc(NS(=O)(=O)c5ccc(NC(CCN6CCC(C(=O)OCCCP(=O)(O)O)CC6)CSc6ccccc6)c(S(=O)(=O)C(F)(F)F)c5)cc4)CC3)c2)c(-c2ccc(Cl)cc2)n1C(C)C
> 10 µM: IC50 (second compound 0.1 µM) | IC50 (second compound 0.316 µM)
inactive: viability, T/C [1] 87.5% | viability, T/C [2] 89.8% | viability, T/C [3] 90.4% | viability, T/C [4] 92.9% | viability, T/C (second compound 0.1 µM, first compound 3.16 µM) 87.5% | viability, T/C (second compound 0.1 µM, first compound 10 µM) 88.3% | viability, T/C [5] 87.7% | viability, T/C [6] 86.9% | viability, T/C [7] 84.5% | viability, T/C [8] 92.1% | viability, T/C (second compound 0.316 µM, first compound 3.16 µM) 83.4% | viability, T/C (second compound 0.316 µM, first compound 10 µM) 64.4% | viability, T/C [9] 67.6% | viability, T/C [10] 74.5% | viability, T/C [11] 68% | viability, T/C [12] 61.6% | viability, T/C (second compound 1 µM, first compound 3.16 µM) 45.9% | viability, T/C (second compound 1 µM, first compound 10 µM) 42% | viability, T/C [13] 36% | viability, T/C [14] 40.6% | viability, T/C [15] 37.9% | viability, T/C [16] 30.2% | viability, T/C (second compound 3.16 µM, first compound 3.16 µM) 22.3% | viability, T/C (second compound 3.16 µM, first compound 10 µM) 17.7% | viability, T/C [17] 24.9% | viability, T/C [18] 26.2% | viability, T/C [19] 21.9% | viability, T/C [20] 20% | viability, T/C (second compound 10 µM, first compound 3.16 µM) 17.5% | viability, T/C (second compound 10 µM, first compound 10 µM) 5.58%
< 0.0316 µM: IC50 (second compound 3.16 µM) | IC50 (second compound 10 µM)
2.35 µM: IC50 (second compound 1 µM)

COc1c(OCCCN2CCOCC2)ccc2c3n(c(=NC(=O)c4cnc(N)nc4)nc12)CCN3 + Cc1c(S(C)(=O)=O)c(-c2cc(F)cc(N3CCN(c4ccc(NS(=O)(=O)c5ccc(NC(CCN6CCC(C(=O)OCCCP(=O)(O)O)CC6)CSc6ccccc6)c(S(=O)(=O)C(F)(F)F)c5)cc4)CC3)c2)c(-c2ccc(Cl)cc2)n1C(C)C
active: viability, T/C [4] 7.35% | viability, T/C [8] 2.69% | viability, T/C [11] 7.07% | viability, T/C [12] 0.53% | viability, T/C [15] 1.45% | viability, T/C [16] 0.19% | viability, T/C [19] 0.24% | viability, T/C [20] 0.29%
0.126 µM: IC50 (second compound 1 µM)
0.231 µM: IC50 (second compound 0.1 µM)
0.0364 µM: IC50 (second compound 3.16 µM)
inactive: viability, T/C [21] 93.1% | viability, T/C [22] 100% | viability, T/C [1] 100% | viability, T/C [2] 88.2% | viability, T/C [3] 35.5% | viability, T/C [23] 90.5% | viability, T/C [24] 96.7% | viability, T/C [5] 105% | viability, T/C [6] 81.1% | viability, T/C [7] 22.2% | viability, T/C [25] 71.7% | viability, T/C [26] 78.3% | viability, T/C [9] 78.6% | viability, T/C [10] 60.6% | viability, T/C [27] 45.4% | viability, T/C [28] 53.2% | viability, T/C [13] 63% | viability, T/C [14] 22.1% | viability, T/C [29] 28.8% | viability, T/C [30] 30.3% | viability, T/C [17] 35.4% | viability, T/C [18] 4.88%
0.185 µM: IC50 (second compound 0.316 µM)
< 0.00316 µM: IC50 (second compound 10 µM)

NC1CCC(NC2CC2c2ccccc2)CC1 (stereo not given) + Cc1c(S(C)(=O)=O)c(-c2cc(F)cc(N3CCN(c4ccc(NS(=O)(=O)c5ccc(NC(CCN6CCC(C(=O)OCCCP(=O)(O)O)CC6)CSc6ccccc6)c(S(=O)(=O)C(F)(F)F)c5)cc4)CC3)c2)c(-c2ccc(Cl)cc2)n1C(C)C
> 0.1 µM: IC50 (second compound 0.1 µM) | IC50 (second compound 0.316 µM) | IC50 (second compound 1 µM)
< 0.000316 µM: IC50 (second compound 3.16 µM) | IC50 (second compound 10 µM)
inactive: viability, T/C (second compound 0.1 µM, first compound 0.000316 µM) 85.7% | viability, T/C (second compound 0.1 µM, first compound 0.001 µM) 83% | viability, T/C [21] 89% | viability, T/C [22] 85.8% | viability, T/C [1] 83.2% | viability, T/C [2] 81.7% | viability, T/C (second compound 0.316 µM, first compound 0.000316 µM) 86.5% | viability, T/C (second compound 0.316 µM, first compound 0.001 µM) 79.6% | viability, T/C [23] 78.3% | viability, T/C [24] 78.7% | viability, T/C [5] 79.5% | viability, T/C [6] 79% | viability, T/C (second compound 1 µM, first compound 0.000316 µM) 73.5% | viability, T/C (second compound 1 µM, first compound 0.001 µM) 68.1% | viability, T/C [25] 64.8% | viability, T/C [26] 62.5% | viability, T/C [9] 61.8% | viability, T/C [10] 60.8% | viability, T/C (second compound 3.16 µM, first compound 0.000316 µM) 37.5% | viability, T/C (second compound 3.16 µM, first compound 0.001 µM) 40.5% | viability, T/C [27] 36.6% | viability, T/C [28] 32% | viability, T/C [13] 31.2% | viability, T/C [14] 34.7% | viability, T/C (second compound 10 µM, first compound 0.000316 µM) 24.5% | viability, T/C (second compound 10 µM, first compound 0.001 µM) 22.4% | viability, T/C [29] 21.8% | viability, T/C [30] 24% | viability, T/C [17] 20% | viability, T/C [18] 21.5%
